Results: PubChem BioAssay AID256 (DTP/NCI, 2004)
Where “and” joins values, the source holds several entries; their conditions need not be identical. Equal values may be shown once. Toxic doses and inconclusive results are not listed.

System: CD2F1 mice, L1210 leukemia ip, survival T/C
Experiment: NCI In Vivo Anticancer Drug Screen. Data for tumor model L1210 Leukemia (intraperitoneal) in CD2F1 (CDF1) mice
Conditions: higher = longer survival
Method in brief: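 Tumor-bearing mice (transplanted tumor) were split into treated and vehicle control groups, and the measured endpoint of each treated group was divided by that of its vehicle controls.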

[1] = endpoint: mean survival time, dose: 100.0 mg/kg/injection, schedule: Q04DX003 (ip), vehicle: saline with Tween-80
[2] = endpoint: mean survival time, dose: 200.0 mg/kg/injection, schedule: Q04DX003 (ip), vehicle: saline with Tween-80
[3] = endpoint: mean survival time, dose: 400.0 mg/kg/injection, schedule: Q04DX003 (ip), vehicle: saline with Tween-80
[4] = endpoint: mean survival time, dose: 50.0 mg/kg/injection, schedule: Q01DX009 (ip), vehicle: saline with Tween-80
[5] = endpoint: mean survival time, dose: 100.0 mg/kg/injection, schedule: Q01DX009 (ip), vehicle: saline with Tween-80
[6] = endpoint: mean survival time, dose: 200.0 mg/kg/injection, schedule: Q01DX009 (ip), vehicle: saline with Tween-80

CSc1nc(N)cc(=O)[nH]1
T/C (endpoint: mean survival time, dose: 50.0 mg/kg/injection, schedule: Q01DX001 (ip), vehicle: Klucel (hydroxypropylcellulose) (HPC)): 98 % of control
T/C (endpoint: mean survival time, dose: 100.0 mg/kg/injection, schedule: Q01DX001 (ip), vehicle: Klucel (hydroxypropylcellulose) (HPC)): 96 % of control
T/C (endpoint: mean survival time, dose: 200.0 mg/kg/injection, schedule: Q01DX001 (ip), vehicle: Klucel (hydroxypropylcellulose) (HPC)): 86 % of control

CSc1nc(N)n2nccc2n1
T/C (endpoint: median survival time, dose: 50.0 mg/kg/injection, schedule: Q01DX005 (ip), vehicle: saline): 102 % of control
T/C (endpoint: median survival time, dose: 100.0 mg/kg/injection, schedule: Q01DX005 (ip), vehicle: saline): 95 % of control
T/C (endpoint: median survival time, dose: 200.0 mg/kg/injection, schedule: Q01DX005 (ip), vehicle: saline): 95 % of control

CCS(=O)(=O)/C=C(\C#Cc1ccccc1)c1ccccc1
T/C (endpoint: mean survival time, dose: 50.0 mg/kg/injection, schedule: Q01DX009 (ip), vehicle: saline): 90 % of control
T/C (endpoint: mean survival time, dose: 100.0 mg/kg/injection, schedule: Q01DX009 (ip), vehicle: saline): 91 % of control
T/C (endpoint: mean survival time, dose: 100.0 mg/kg/injection, schedule: Q04DX003 (ip), vehicle: saline): 102 % of control
T/C (endpoint: mean survival time, dose: 200.0 mg/kg/injection, schedule: Q01DX009 (ip), vehicle: saline): 91 % of control
T/C (endpoint: mean survival time, dose: 200.0 mg/kg/injection, schedule: Q04DX003 (ip), vehicle: saline): 102 % of control
T/C (endpoint: mean survival time, dose: 400.0 mg/kg/injection, schedule: Q04DX003 (ip), vehicle: saline): 98 % of control

CCOC(=O)c1c2cccccc-2c(C(=O)OCC)c1N
T/C [1]: 95 % of control
T/C [2]: 109 % of control
T/C [3]: 92 % of control

C[Si](C)(C)c1c(F)c(F)c(F)c(F)c1F
T/C [1]: 96 % of control
T/C [2]: 94 % of control
T/C [3]: 88 % of control

CCCCC(=O)c1cc(O)ccc1O
T/C (endpoint: mean survival time, dose: 100.0 mg/kg/injection, schedule: Q01DX001 (ip), vehicle: saline): 107 % of control
T/C (endpoint: mean survival time, dose: 200.0 mg/kg/injection, schedule: Q01DX001 (ip), vehicle: saline): 98 % of control
T/C (endpoint: mean survival time, dose: 400.0 mg/kg/injection, schedule: Q01DX001 (ip), vehicle: saline): 92 % of control

NC(CO)C(O)c1ccc(N=Nc2ccc(O)cc2)cc1 (stereo unspecified)
T/C (endpoint: mean survival time, dose: 25.0 mg/kg/injection, schedule: Q01DX009 (ip), vehicle: saline with Tween-80): 100 % of control
T/C [4]: 104 % of control
T/C [5]: 94 % of control

CCC1(O)C(=O)OCc2c1cc1n(c2=O)Cc2cc3ccc([N+](=O)[O-])cc3nc2-1 (stereo unspecified)
T/C (endpoint: median survival time, dose: 10.0 mg/kg/injection, schedule: Q04DX002 (ip), vehicle: saline with Tween-80): 114 % of control

CC(C)(C)OOC(=O)C1CCCCCCC1
T/C [1]: 98 % of control
T/C [2]: 96 % of control
T/C [3]: 96 % of control

Nc1nc(Cl)c2[nH]cnc2n1
T/C (endpoint: mean survival time, dose: 13.3 mg/kg/injection, schedule: Q01DX009 (ip), vehicle: saline with Tween-80): 153 % of control
T/C (endpoint: mean survival time, dose: 44.0 mg/kg/injection, schedule: Q01DX009 (ip), vehicle: saline with Tween-80): 151 % of control and 154 % of control
T/C (endpoint: mean survival time, dose: 60.0 mg/kg/injection, schedule: Q04DX003 (ip), vehicle: saline with Tween-80): 181 % of control
T/C (endpoint: mean survival time, dose: 66.0 mg/kg/injection, schedule: Q01DX009 (ip), vehicle: saline with Tween-80): 100 % of control
T/C (endpoint: mean survival time, dose: 75.0 mg/kg/injection, schedule: Q04DX003 (ip), vehicle: saline with Tween-80): 160 % of control
T/C (endpoint: mean survival time, dose: 88.0 mg/kg/injection, schedule: Q01DX009 (ip), vehicle: saline with Tween-80): 116 % of control
T/C [5]: 111 % of control
T/C (endpoint: mean survival time, dose: 132.0 mg/kg/injection, schedule: Q01DX009 (ip), vehicle: saline with Tween-80): 113 % of control
T/C (endpoint: mean survival time, dose: 150.0 mg/kg/injection, schedule: Q01DX009 (ip), vehicle: saline with Tween-80): 86 % of control
T/C (endpoint: mean survival time, dose: 150.0 mg/kg/injection, schedule: Q04DX003 (ip), vehicle: saline with Tween-80): 156 % of control and 168 % of control
T/C [2]: 122 % of control
T/C (endpoint: mean survival time, dose: 300.0 mg/kg/injection, schedule: Q01DX009 (ip), vehicle: saline with Tween-80): 111 % of control

C/C=C(\C)c1cc(=O)c2c(C)cc3c(c2o1)C(=O)c1c(O)c(C2CC(C)(N(C)C)C(O)C(C)O2)cc(C2CC(N(C)C)C(O)C(C)O2)c1C3=O (stereo unspecified)
T/C (endpoint: mean survival time, dose: 0.38 mg/kg/injection, schedule: Q01DX009 (ip), vehicle: saline): 102 % of control
T/C (endpoint: mean survival time, dose: 0.62 mg/kg/injection, schedule: Q01DX009 (ip), vehicle: saline): 115 % of control
T/C (endpoint: mean survival time, dose: 0.63 mg/kg/injection, schedule: Q01DX009 (ip), vehicle: saline): 116 % of control
T/C (endpoint: mean survival time, dose: 0.75 mg/kg/injection, schedule: Q01DX009 (ip), vehicle: saline): 109 % of control
T/C (endpoint: mean survival time, dose: 1.25 mg/kg/injection, schedule: Q01DX009 (ip), vehicle: saline): 113 % of control and 105 % of control
T/C (endpoint: mean survival time, dose: 1.5 mg/kg/injection, schedule: Q01DX009 (ip), vehicle: saline): 113 % of control
T/C (endpoint: mean survival time, dose: 3.0 mg/kg/injection, schedule: Q01DX009 (ip), vehicle: saline): 107 % of control
T/C (endpoint: mean survival time, dose: 3.13 mg/kg/injection, schedule: Q01DX009 (ip), vehicle: saline with Tween-80): 98 % of control
T/C (endpoint: mean survival time, dose: 31.25 micrograms/kg/injection, schedule: Q01DX009 (ip), vehicle: saline): 103 % of control
T/C (endpoint: mean survival time, dose: 62.5 micrograms/kg/injection, schedule: Q01DX009 (ip), vehicle: saline): 115 % of control
T/C (endpoint: mean survival time, dose: 125.0 micrograms/kg/injection, schedule: Q01DX009 (ip), vehicle: saline): 111 % of control
T/C (endpoint: mean survival time, dose: 156.25 micrograms/kg/injection, schedule: Q01DX009 (ip), vehicle: saline): 119 % of control
T/C (endpoint: mean survival time, dose: 250.0 micrograms/kg/injection, schedule: Q01DX009 (ip), vehicle: saline): 115 % of control
T/C (endpoint: mean survival time, dose: 500.0 micrograms/kg/injection, schedule: Q01DX009 (ip), vehicle: saline): 115 % of control
T/C (endpoint: mean survival time, dose: 625.0 micrograms/kg/injection, schedule: Q01DX009 (ip), vehicle: saline): 104 % of control
T/C (endpoint: mean survival time, dose: 1000.0 micrograms/kg/injection, schedule: Q01DX009 (ip), vehicle: saline): 105 % of control
T/C (endpoint: mean survival time, dose: 1250.0 micrograms/kg/injection, schedule: Q01DX009 (ip), vehicle: saline): 120 % of control
T/C (endpoint: mean survival time, dose: 2500.0 micrograms/kg/injection, schedule: Q01DX009 (ip), vehicle: saline): 95 % of control
T/C (endpoint: median survival time, dose: 3.13 mg/kg/injection, schedule: Q01DX001 (ip), vehicle: saline with Tween-80): 111 % of control
T/C (endpoint: median survival time, dose: 6.25 mg/kg/injection, schedule: Q01DX001 (ip), vehicle: saline with Tween-80): 111 % of control
T/C (endpoint: median survival time, dose: 12.5 mg/kg/injection, schedule: Q01DX001 (ip), vehicle: saline with Tween-80): 122 % of control
T/C (endpoint: median survival time, dose: 25.0 mg/kg/injection, schedule: Q01DX001 (ip), vehicle: saline with Tween-80): 111 % of control

O=Cc1c[nH]c2ncccc12
T/C [1]: 98 % of control
T/C [2]: 94 % of control
T/C [3]: 98 % of control

CNC[C@@H](O)c1ccc(O)c(O)c1
T/C (endpoint: mean survival time, dose: 1.0 mg/kg/injection, schedule: Q01DX001 (ip), vehicle: saline): 97 % of control
T/C (endpoint: mean survival time, dose: 2.0 mg/kg/injection, schedule: Q01DX001 (ip), vehicle: saline): 100 % of control
T/C (endpoint: mean survival time, dose: 2.5 mg/kg/injection, schedule: Q01DX009 (ip), vehicle: saline): 104 % of control
T/C (endpoint: mean survival time, dose: 4.0 mg/kg/injection, schedule: Q01DX001 (ip), vehicle: saline): 107 % of control
T/C (endpoint: mean survival time, dose: 5.0 mg/kg/injection, schedule: Q01DX009 (ip), vehicle: saline): 104 % of control
T/C (endpoint: mean survival time, dose: 8.0 mg/kg/injection, schedule: Q01DX001 (ip), vehicle: saline): 103 % of control

Nc1nc(=S)c2ncn(C3OC(CO)C4OC43)c2[nH]1 (stereo unspecified)
T/C (endpoint: mean survival time, dose: 75.0 mg/kg/injection, schedule: Q01DX001 (ip), vehicle: saline): 101 % of control
T/C (endpoint: mean survival time, dose: 150.0 mg/kg/injection, schedule: Q01DX001 (ip), vehicle: saline): 98 % of control
T/C (endpoint: mean survival time, dose: 300.0 mg/kg/injection, schedule: Q01DX001 (ip), vehicle: saline): 97 % of control

CC1(c2ccc(O)cc2)CCC(C(C)(C)c2ccc(O)cc2)CC1 (stereo unspecified)
T/C [1]: 92 % of control
T/C [2]: 90 % of control
T/C [3]: 90 % of control

COc1ccc(OCCOC(=O)Nc2ccc(C)c([N+](=O)[O-])c2)cc1
T/C [4]: 92 % of control
T/C [5]: 88 % of control
T/C [6]: 92 % of control

Cc1ccc(S(=O)(=O)OC2C(COCC(=O)O)OC3OC(C)(C)OC32)cc1 (stereo unspecified)
T/C [5]: 95 % of control
T/C [1]: 98 % of control
T/C [6]: 93 % of control
T/C [2]: 101 % of control
T/C (endpoint: mean survival time, dose: 400.0 mg/kg/injection, schedule: Q01DX009 (ip), vehicle: saline with Tween-80): 90 % of control
T/C [3]: 93 % of control

COc1ccc(OC)c2c1CCC(=O)C2
T/C (endpoint: mean survival time, dose: 12.5 mg/kg/injection, schedule: Q01DX009 (ip), vehicle: other): 102 % of control
T/C (endpoint: mean survival time, dose: 25.0 mg/kg/injection, schedule: Q01DX009 (ip), vehicle: other): 104 % of control
T/C (endpoint: mean survival time, dose: 50.0 mg/kg/injection, schedule: Q01DX009 (ip), vehicle: other): 102 % of control
T/C (endpoint: mean survival time, dose: 100.0 mg/kg/injection, schedule: Q01DX009 (ip), vehicle: other): 107 % of control
T/C (endpoint: mean survival time, dose: 200.0 mg/kg/injection, schedule: Q01DX009 (ip), vehicle: other): 107 % of control
